Reference: PMC5372569, “A New Oleanolic Acid Derivative against CCl4-Induced Hepatic Fibrosis in Rats” (International Journal of Molecular Sciences, 2017)
Values joined by “and” are separate entries in the source; they are usually repeats but may differ in a detail not shown here. Equal entries are not always repeated.

How the values were obtained:
[1] = test system: CCl4-induced liver fibrosis in rats; test: Histological assessment (H&E) of livers in CCl4-induced liver fibrosis; assay type: in vivo; conditions: nine weeks
Experimental: (§1) After a two-week acclimation period, 52 rats were randomly divided into five groups (each group approximately consisted of ten rats). (1) Normal group: rats were fed with regular diet and distilled water and were injected intraperitoneally with olive oil (2 mL/kg body weight per day, i.p. twice per week) for nine weeks; (2) Model group: rats were feeding with the same quantity as the normal group and were injected with 40% CCl4/olive oil (2 mL/kg body weight, twice per week) for nine weeks to induce liver fibrosis; (3) Low-dose group: rats were fed with the same quantity as the normal group and were administered intraperitoneal injections with 40% CCl4/olive oil (2 mL/kg body weight, twice per week) and with a low dose (14 mg/kg body weight, once per day) Oxy-Di-OA treatment for nine weeks; (4) High-dose group: rats were fed with the same quantity as the normal group and were treated with 40% CCl4/olive oil (2 mL/kg body weight twice per week) and with a high dose (28 mg/kg body weight, once per day) Oxy-Di-OA treatment for nine weeks; (5) Positive control group: rats were fed with the same quantity as the normal group and were administered 40% CCl4/olive oil (2 mL/kg body weight, twice per week) and with bifendate (10.5 mg/kg body weight, once per day) for nine weeks.
(§2) At 48 h after the final injection of CCl4, all rats were anaesthetized with chloral hydrate, and the blood samples were collected from the aorta abdominalis. The serum samples were obtained by centrifugation at 3000 rpm for 15 min to obtain the supernatant and were kept frozen at −80 °C until biochemical analysis. Livers and spleens were immediately removed, rinsed in ice-cold saline, and weighed. The data were used for calculating liver and spleen indices. Then a portion of each liver was fixed in 4% buffered formaldehyde, embedded in paraffin blocks, and stained with hematoxylin-eosin (H&E) for histological and biochemical analyses. The rest of the tissues were stored at −80 °C until required.

TGF-β1 = test: Immunohistochemical staining of TGF-β1 in liver tissue, CCl4-induced liver fibrosis; assay type: in vivo; conditions: nine weeks, CCl4 rats
Experimental: as §1
Immunostaining was conducted as paraffin-embedded liver tissue sections of 5 µm thickness to determine the expression and distribution of TGF-β1 in the liver tissue of rats. Tissues were treated with 3% H2O2 in distilled water for 10 min to block endogenous peroxidase activity followed by another wash, and then blocked with 5% BSA blocking buffer for 20 min. Then, after endogenous peroxidase blockage, the sections were incubated with TGF-β1 primary antibody (1:50 dilution) at 4 °C overnight. The next day, they were washed three times with PBS (phosphate-buffered saline) and then incubated with HRP-labelled goat-anti-rabbit secondary antibodies at 37 °C for 30 min. […] The expression of TGF-β1 in liver tissues was analyzed under a light microscope (Olympus, Tokyo, Japan).

[2] = test system: CCl4-induced liver fibrosis in rats; test: Serum ALT and AST in CCl4-induced liver fibrosis; assay type: in vivo; conditions: mean ± SD
Experimental: as §1, §2
According to the corresponding manufacturer’s protocols, plasma samples were prepared after finishing animal experiments and determined using ALT and AST diagnostic kits. The ALT and AST enzyme activities were measured by the third affiliated hospital of Beijing University of Chinese Medicine (Beijing, China).

[3] = test system: CCl4-induced liver fibrosis in rats; test: Liver and spleen indices in CCl4-induced liver fibrosis; assay type: in vivo; conditions: mean ± SD
Experimental: as §1, §2
We used the percentage of the body weight to represent relative weights of the liver and spleen, respectively. The indices of liver and spleen were expressed as Wl/Wm and Ws/Wm, respectively. The Wl and Ws represented the average liver and spleen weight of each group, respectively, and Wm was the average rat body weight of each group.

[4] = Acute toxicity assay via intraperitoneal injection; assay type: in vivo, Kunming mice; conditions: male, Kunming, mouse, in vivo, ip, mice, Käber assessment
Experimental: (§3) According to previous studies, Oxy-Di-OA was further investigated for its approximate LD50 and 95% confidence interval (CIs) value in mice. Male Kunming mice, weighing 20 ± 2 g were randomly divided into eleven groups of six individuals matched by weight and size. The mice had fasted for 12 h, but water was allowed ad libitum before the acute toxicity experiments.
(§4) The maximum suspended dose (900 mg/kg) of Oxy-Di-OA was prepared in bean oil solution. One group of mice was injected intraperitoneally with bean oil as a normal control. Then the other five groups of mice were given intraperitoneal injections of Oxy-Di-OA in doses of 178, 422, 600, 750, and 900 mg/kg, respectively. The mice were observed continuously for 1 h after such treatment and then intermittently for 4 h, and thereafter over a period of 24 h. The mice were further observed for up to seven days following treatment for any situations of poisoning and deaths and the latency of death. Some abnormal behaviors were recorded.
(§5) The acute toxicity assay via intraperitoneal injection was evaluated by LD50 and 95% CIs which were calculated by Käber assessment.

mice = test: Acute toxicity assay via intraperitoneal injection; assay type: in vivo, Kunming mice
Experimental: as §3, §4, §5

[5] = Acute toxicity assay via gavage; conditions: male, Kunming, mouse, in vivo; mice, gavage (oral administration), doses up to 2000 mg/kg
Experimental: as §3
One group of mice was orally administered bean oil as a normal control. Then the other four groups of mice were given gavage of Oxy-Di-OA in doses of 200, 500, 1000, and 2000 mg/kg, respectively. The mice were observed continuously for 1 h after such treatment and then intermittently for 4 h, and thereafter over a period of 24 h. The mice were further observed for up to seven days following treatment for any signs of toxicity, death, and the latency of death. Abnormal symptoms were recorded immediately.
The acute toxicity test via gavage was evaluated by LD50.

[6] = Pharmacokinetic study after single-dose oral administration (HPLC-UV); assay type: in vivo, SD rats; conditions: rats
Experimental: The LC system is made up of an Agilent 1100 HPLC system (Agilent Corporation, USA) coupled with a reverse-phase Agilent TC-C18 analytical column (4.6 mm × 250 mm, 5 µm particle size). The column temperature set at 25 °C. The column used during the pharmacokinetic assay was eluted at a flow rate of 1 mL/min, and the solvent consisted of 98% methanol and 2% aqueous solution. The detection wavelength was 278 nm and the injection volume was 10 μL. Healthy SD rats had no access to food until 12 h after dose administration, while water was free to access throughout the experiments. To determine the drug concentrations and to calculate the pharmacokinetic parameters, blood was obtained from the ophthalmic vein and collected with heparinized microcentrifuge tubes. The plasma was separated by centrifuging the blood samples at 4000 rpm for 15 min. Plasma stored in a freezer at −20 °C was thawed at 4 °C before treatment. After that, 15 μL of IS (50.4 μg/mL) working solution was added to such a plasma sample (200 μL), followed by vortex-mixing for 1 min to obtain the mixture. Then we added 600 μL acetonitrile to the mixture and vortexed for 5 min. After that, the mixture was centrifuged at 12,000 rpm for 5 min at 4 °C. […] The residue was then reconstituted in 100 μL methanol, and stirred and vortexed for 1 min. The solution was centrifuged at 12,000 rpm for 5 min to obtain the supernatant. Finally, 10 μL of supernatant was injected into the HPLC system for further analysis. Oxy-Di-OA was dissolved in normal saline before using. Before administration of drug, six SD rats had no access to food overnight but water was allowed free access. A single dose (500 mg/kg) of Oxy-Di-OA solution was administered orally to rats. After that, the blood samples were collected with heparinized microcentrifuge tubes at 1, 2, 6, 8, 10, 12, 14, 16 and 20 h. Plasma was separated by centrifugation (4000 rpm, 10 min, and 15 °C) and kept at −20 °C until necessary.

[7] = Stability of Oxy-Di-OA in rat plasma and processed samples; assay type: physicochemical
Experimental: The stability of Oxy-Di-OA was investigated by analyzing the QC samples over three levels under different conditions, including −20 °C for 10 and 20 days (long-term stability), and room temperature for one day (short-term stability). In addition, the concentration of Oxy-Di-OA would be detected in the above samples to compare with the initial value in order to determine whether it has changed or not.

HBV (Hepatitis B Virus) = test system: HBV (Hepatitis B Virus); design: method as in PMID 27023498; conditions: previous studies; cited from earlier work
[8] = high-dose group 28 mg/kg once per day
[9] = low-dose group 14 mg/kg once per day
[10] = dose 28 mg/kg (high dose), 28 mg/kg
[11] = SD, rat, plasma, single oral dose 500 mg/kg, n = 6
[12] = single oral dose 500 mg/kg, n = 6
[13] = bifendate 10.5 mg/kg once per day

Question: For `CC1(C)CCC2(C(=O)O)CC[C@]3(C)C(=CC=C4[C@@]5(C)CCC(=O)C(C)(C)[C@@H]5CC[C@]43C)C2C1` (stereo partly shown) [Oxy-Di-OA, 3-oxours-oleana-9(11), 12-dien-28-oic acid], which “histological examination of rat livers (H&E)” value (“histological examination” for short) [1, 8] is on record?
Answer: marked regression and alleviation in the abnormal areas

Question: What about the “histological examination” value [1, 9] of the same molecule?
Answer: moderate regression of morphological changes

Question: And the “expression of TGF-β1 (immunohistochemical staining)” value (“expression of TGF-β1” for short) (TGF-β1; [8])?
Answer: a lower expression of TGF-β1 compared to model group

Question: What about the “expression of TGF-β1” value (TGF-β1; [9]) of the same molecule?
Answer: a lower expression of TGF-β1 compared to model group

Question: And the ALT ([2]; dose 14 mg/kg)?
Answer: 77.58 ± 39.58 U/L

Question: What about the AST ([2]; dose 14 mg/kg) of the same molecule?
Answer: 122.00 ± 52.19 U/L

Question: What about the ALT ([2]; dose 28 mg/kg) of the same molecule?
Answer: 67.06 ± 51.59 U/L

Question: What about the AST ([2]; dose 28 mg/kg) of the same molecule?
Answer: 141.89 ± 71.57 U/L

Question: And the “Liver Index” value ([3]; dose 14 mg/kg)?
Answer: 3.46 ± 0.38 %

Question: What about the “Spleen Index” value ([3]; dose 14 mg/kg) of the same molecule?
Answer: 0.24 ± 0.06 %

Question: And the “Liver Index” value [3, 10]?
Answer: 3.15% ± 0.36% and 3.15 ± 0.36 *^,# %

Question: What about the “Spleen Index” value [3, 10] of the same molecule?
Answer: 0.26% ± 0.05% and 0.26 ± 0.05 %

Question: What about the LD50 at 7 days ([4]; read-out: 95% CIs of LD50) of the same molecule?
Answer: 640 to 799 mg/kg

Question: What about the LD50 at 7 days ([4]; read-out: LD50) of the same molecule?
Answer: 715 mg/kg

Question: And the “dose harmless for further in vivo study” value (mice)?
Answer: 600 mg/kg

Question: And the “Death Rate” value (mice; 178 mg/kg)?
Answer: 0%

Question: What about the “Death Rate” value (mice; 422 mg/kg) of the same molecule?
Answer: 0%

Question: What about the “Death Rate” value (mice; 600 mg/kg) of the same molecule?
Answer: 0%

Question: What about the “Death Rate” value (mice; 750 mg/kg) of the same molecule?
Answer: 67%

Question: And the “Death Rate” value (mice; 900 mg/kg)?
Answer: 83%

Question: And the symptoms observed (mice; high dose, one hour after the experiment)?
Answer: slow movement and a decrease in aggressiveness

Question: What about the LD50 at 7 days [5] of the same molecule?
Answer: > 2000 mg/kg

Question: And the AUC(0-t) ([6]; SD, rat, plasma, po, 500 mg/kg, single oral dose 500 mg/kg, n = 6, read-out: AUClast (area under the concentration-time curve from t = 0 to the last time))?
Answer: 88020 ± 660 ng·h/mL

Question: What about the Cmax [6, 11] of the same molecule?
Answer: 8180 ± 660 ng/mL

Question: And the MRT [6, 11]?
Answer: 9.48 ± 0.48 h

Question: What about the Tmax ([6]; SD, rat, plasma, single oral dose 500 mg/kg, n = 6, read-out: Tmax (time to reach peak concentration)) of the same molecule?
Answer: 10 ± 2.19 h

Question: And the half-life ([6]; SD, rat, plasma, single oral dose 500 mg/kg, n = 6, read-out: t1/2 (elimination half-life) (converted))?
Answer: 2.19 ± 0.71 h

Question: What about the CL [6, 12] of the same molecule?
Answer: 92.9307 ± 16.544 mL/min/kg

Question: What about the Vz [6, 12] of the same molecule?
Answer: 18,290.17 ± 9453.59 mL/kg

Question: What about the “AUClast (area under the concentration-time curve from t = 0 to the last time)” value ([6]; single oral dose 500 mg/kg, n = 6, 500 mg/kg) of the same molecule?
Answer: 90210 ± 15680 ng·h/mL

Question: And the “elimination half-life compared with oleanolic acid” value ([6]; oleanolic acid data ref 27)?
Answer: longer elimination half-life than its parent compound, oleanolic acid

Question: What about the “stability in plasma biomatrix and processed samples” value ([7]; freezing and thawing cycles, room temperature 24 h) of the same molecule?
Answer: stable

Question: And the “concentration relative to the initial concentration” value ([7]; methanol solutions, room temperature for 24 h)?
Answer: 97.46% to 100.17%

Question: And the “anti-HBV activity IC50” value (HBV (Hepatitis B Virus))?
Answer: 3.13 µg/mL

Question: What about the “inhibition of the rebound of the viral replication rate, compared with lamivudine” value (HBV (Hepatitis B Virus)) of the same molecule?
Answer: superior to the positive drug (Lamivudine)

Question: And the “inhibition rate of the secretion of HBsAg” value (HBV (Hepatitis B Virus))?
Answer: 90.52% ± 1.78%

Question: And the “reduction rate of the secretion of HBeAg” value (HBV (Hepatitis B Virus))?
Answer: 42.31% ± 3.53%

Question: With `COC(=O)c1cc(OC)c2c(c1-c1c(C(=O)OC)cc(OC)c3c1OCO3)OCO2` [Bifendate, bifendate, reference compound] as the molecule, how does the “histological examination” value [1, 13] read?
Answer: notable alleviation in abnormal areas

Question: What about the “expression of TGF-β1” value (TGF-β1; [13]) of the same molecule?
Answer: a low expression of TGF-β1

Question: What about the ALT ([2]; dose 10.5 mg/kg) of the same molecule?
Answer: 54.54 ± 21.40 U/L

Question: What about the AST ([2]; dose 10.5 mg/kg) of the same molecule?
Answer: 122.56 ± 39.18 U/L

Question: And the “Liver Index” value ([3]; dose 10.5 mg/kg)?
Answer: 3.57 ± 0.34 %

Question: And the “Spleen Index” value ([3]; dose 10.5 mg/kg)?
Answer: 0.24 ± 0.04 %
